Results taken from patent US12715849B2, “Herbicidal tetrazole compounds” (SYNGENTA CROP PROTECTION AG, priority 2020, dated 2026).

How the values were obtained:
Assay type in all cases: in vivo
[1] = test system: Ablution theophrasti (ABUTH); assay: Glasshouse herbicidal test, pre- and post-emergence (Table B1); details: 130 g/h, evaluated after 13 days; for percentage damage caused to the plant, POST Application ABUTH: post-emergence; for percentage damage caused to the plant, PRE Application ABUTH: pre-emergence
Method in brief: (§1)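 Plants were sprayed one day (pre-emergence) or 8 days (post-emergence) after sowing, at 130 g/h unless indicated, using an acetone/water (50:50) formulation containing 0.5% Tween 20. Plants were grown at 24/16 °C, 14 h light, 65% humidity, and damage was scored 13 days later on a five-point scale (5=80–100% to 1=0–19%).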

[2] = test system: Echinochloa crus-galli (ECHCG); assay: as above; details: 130 g/h, evaluated after 13 days; for percentage damage caused to the plant, POST Application ECHCG: post-emergence; for percentage damage caused to the plant, PRE Application ECHCG: pre-emergence
Method in brief: as §1

[3] = test system: Amaranthus retoflexus (AMARE); assay: as above; details: 130 g/h, evaluated after 13 days; for percentage damage caused to the plant, POST Application AMARE: post-emergence; for percentage damage caused to the plant, PRE Application AMARE: pre-emergence
Method in brief: as §1

Setaria faberi (SETFA) = assay: as above; details: 130 g/h, evaluated after 13 days; for percentage damage caused to the plant, POST Application SETFA: post-emergence; for percentage damage caused to the plant, PRE Application SETFA: pre-emergence
Method in brief: as §1

[4] = test system: Ipomoea hederacea (IPOHE); assay: as above; details: 130 g/h, evaluated after 13 days; for percentage damage caused to the plant, POST Application IPOHE: post-emergence; for percentage damage caused to the plant, PRE Application IPOHE: pre-emergence
Method in brief: as §1

[5] = test system: IPOHE (Ipomoea hederacea); assay: Comparative test, pre-emergence (Table B2); details: after 14 days
[6] = test system: Amaranthus palmeri (AMAPA); assay: Glasshouse herbicidal test, pre- and post-emergence (Table B1); details: 130 g/h, evaluated after 13 days; for percentage damage caused to the plant, POST Application AMAPA: post-emergence; for percentage damage caused to the plant, PRE Application AMAPA: pre-emergence
Method in brief: as §1

SETFA (Setaria faberi) = assay: Comparative test, pre-emergence (Table B2); details: after 14 days
[7] = test system: ECHCG (Echinochloa crus-galli); assay: Comparative test, pre-emergence (Table B2); details: after 14 days
[8] = test system: AMARE (Amaranthus retoflexus); assay: Comparative test, pre-emergence (Table B2); details: after 14 days

| Compound | percentage damage caused to the plant, POST Application ABUTH [1] | percentage damage caused to the plant, PRE Application ABUTH [1] | percentage damage caused to the plant, POST Application ECHCG [2] | percentage damage caused to the plant, PRE Application ECHCG [2] | percentage damage caused to the plant, POST Application AMARE [3] | percentage damage caused to the plant, PRE Application AMARE [3] | percentage damage caused to the plant, POST Application SETFA (Setaria faberi (SETFA)) | percentage damage caused to the plant, PRE Application SETFA (Setaria faberi (SETFA)) | percentage damage caused to the plant, POST Application IPOHE [4] | percentage damage caused to the plant, PRE Application IPOHE [4] | damage to plant (100 = total damage; 0 = no damage), PRE Application IPOHE ([5]; rate 31 g/ha) | damage to plant (100 = total damage; 0 = no damage), PRE Application IPOHE ([5]; rate 130 g/ha) | percentage damage caused to the plant, POST Application AMAPA [6] | percentage damage caused to the plant, PRE Application AMAPA [6] | damage to plant (100 = total damage; 0 = no damage), PRE Application SETFA (SETFA (Setaria faberi); rate 31 g/ha) | damage to plant (100 = total damage; 0 = no damage), PRE Application SETFA (SETFA (Setaria faberi); rate 130 g/ha) | damage to plant (100 = total damage; 0 = no damage), PRE Application ECHCG ([7]; rate 31 g/ha) | damage to plant (100 = total damage; 0 = no damage), PRE Application ECHCG ([7]; rate 130 g/ha) | damage to plant (100 = total damage; 0 = no damage), PRE Application AMARE ([8]; rate 31 g/ha) | damage to plant (100 = total damage; 0 = no damage), PRE Application AMARE ([8]; rate 130 g/ha) |
| --- | --- | --- | --- | --- | --- | --- | --- | --- | --- | --- | --- | --- | --- | --- | --- | --- | --- | --- | --- | --- |
| Cn1nnnc1NC(=O)c1ccc(OC(F)(F)F)c(NS(C)(=O)=O)c1Cl [Compound 1.004] | 5 (5=80-100%) | 5 (5=80-100%) | 5 (5=80-100%) | 5 (5=80-100%) | 5 (5=80-100%) | 5 (5=80-100%) | 5 (5=80-100%) | 5 (5=80-100%) | 4 (4=60-79%) | 3 (3=40-59%) | – | – | – | – | – | – | – | – | – | – |
| Cn1nnnc1NC(=O)c1ccc(OC(F)F)c(NS(C)(=O)=O)c1Cl [Compound 1.065] | – | 5 (5=80-100%) | – | 4 (4=60-79%) | 5 (5=80-100%) | 5 (5=80-100%) | 5 (5=80-100%) | 3 (3=40-59%) | 4 (4=60-79%) | 2 (2=20-39%) | – | – | – | – | – | – | – | – | – | – |
| CCn1nnnc1NC(=O)c1ccc(OC(F)(F)F)c(NS(C)(=O)=O)c1Cl [Compound 1.001] | 5 (5=80-100%) | 5 (5=80-100%) | 5 (5=80-100%) | 5 (5=80-100%) | 4 (4=60-79%) | 5 (5=80-100%) | 5 (5=80-100%) | 3 (3=40-59%) | 5 (5=80-100%) | 4 (4=60-79%) | – | – | – | – | – | – | – | – | – | – |
| CCn1nnnc1NC(=O)c1ccc(OC(F)F)c(NS(C)(=O)=O)c1Cl [Compound 1.059] | 5 (5=80-100%) | 5 (5=80-100%) | 5 (5=80-100%) | 5 (5=80-100%) | 5 (5=80-100%) | 5 (5=80-100%) | 5 (5=80-100%) | 4 (4=60-79%) | 5 (5=80-100%) | 2 (2=20-39%) | – | – | – | – | – | – | – | – | – | – |
| CCS(=O)(=O)Nc1c(OC(F)(F)F)ccc(C(=O)Nc2nnnn2C)c1C [Compound 1.081] | – | – | 5 (5=80-100%) | 5 (5=80-100%) | 5 (5=80-100%) | 5 (5=80-100%) | 5 (5=80-100%) | 5 (5=80-100%) | 5 (5=80-100%) | 3 (3=40-59%) | 40 | 50 | 5 (5=80-100%) | 5 (5=80-100%) | 20 | 80 | 60 | 90 | 90 | 100 |
| CCS(=O)(=O)Nc1c(OC(F)F)ccc(C(=O)Nc2nnnn2C)c1Cl [Compound 1.064] | 5 (5=80-100%) | 5 (5=80-100%) | 5 (5=80-100%) | 5 (5=80-100%) | 5 (5=80-100%) | 5 (5=80-100%) | 5 (5=80-100%) | 4 (4=60-79%) | 4 (4=60-79%) | 2 (2=20-39%) | – | – | 5 (5=80-100%) | 5 (5=80-100%) | – | – | – | – | – | – |
| Cc1c(C(=O)Nc2nnnn2C)ccc(OC(F)(F)F)c1NS(C)(=O)=O [Compound 1.075] | – | – | 5 (5=80-100%) | 5 (5=80-100%) | 5 (5=80-100%) | 5 (5=80-100%) | 5 (5=80-100%) | 4 (4=60-79%) | 5 (5=80-100%) | 3 (3=40-59%) | 40 | 50 | – | 5 (5=80-100%) | 30 | 60 | 60 | 90 | 80 | 100 |
| CCS(=O)(=O)Nc1c(OC(F)(F)F)ccc(C(=O)Nc2nnnn2C)c1Cl [Compound 1.003, 2-chloro-3-(ethylsulfonylamino)-N-(1-methyltetrazol-5-yl)-4-(trifluoromethoxy)benzamide] | 5 (5=80-100%) | 5 (5=80-100%) | 5 (5=80-100%) | 5 (5=80-100%) | 4 (4=60-79%) | 5 (5=80-100%) | 5 (5=80-100%) | 4 (4=60-79%) | 5 (5=80-100%) | 4 (4=60-79%) | – | – | – | – | – | – | – | – | – | – |
